Literature values in patent US20100267960A1, “PROCESS FOR PREPARING PRAMIPEXOLE DIHYDROCHLORIDE TABLETS” (Boehringer Ingelheim Pharma GmbH & Co. KG, priority 2006, published 2010).
Counter-ions that a name gives are not always drawn.

How the values were obtained:
[1] = not given; remark: listed apart in the source

In the case of `CCCN[C@H]1CCc2nc(N)sc2C1` [Pramipexole dihydrochloride monohydrate, pramipexole dihydrochloride monohydrate], the hygroscopicity (solid) is given as “not hygroscopic”, the “solubility in buffer media” value ([1]; buffer media, between pH 2 and pH 7.4) is given as “above 10 mg/mL” and the Water solubility ([1]; water) is given as “more than 20 mg/mL”.
In the case of `CCCN[C@H]1CCc2nc(N)sc2C1` [Pramipexole, (S)-2-amino-4,5,6,7-tetrahydro-6-(propylamino)benzothiazole], the “light sensitivity in solution” value (in solution) is given as “light sensitive” and the “stability in the solid state” value (solid state) is given as “very stable”.
